≈ marks a conversion by molar mass, not a printed value.
Columns and labels:
H37Rv-TB = assay: MIC re-screen in the presence of 4% BSA and 10% FBS; type: cell-based, Mycobacterium tuberculosis; settings: ATP and MABA readouts
H37Rv TB = assay: Whole cell MIC against H37Rv; type: cell-based; settings: Mycobacterium tuberculosis
M. bovis BCG = assay: microbe, parasite or virus in culture; type: cell-based; settings: Mycobacterium tuberculosis variant bovis BCG, read-out: MIC90 M. bovis BCG

Row | Structure (SMILES) | MIC shift (H37Rv-TB) | MIC (H37Rv TB) | further results
1 | Cc1ccn2c(C(=O)NCc3ccccc3)c(C)nc2c1 [Compound 1] | less than two fold |  | 
2 | Cc1ccn2c(C(=O)NCc3ccc(Cl)c(Cl)c3)c(C)nc2c1 [Compound 7] |  | 9 to 14 µM (≈ 3.13 to 4.88 µg/mL) | 
3 | Cc1ccn2c(C(=O)NCc3cccc(F)c3)c(C)nc2c1 [Compound 8] |  | ~0.3 µM (≈ 0.0892 µg/mL) | 
4 | COc1cccc(CNC(=O)c2c(C)nc3ncc(C)cn23)c1 [Compound 10] | less than two fold |  | 
5 | CO[C@H]1/C=C/O[C@@]2(C)Oc3c(C)c(O)c4c(O)c(c(/C=N/N5CCN(C)CC5)c(O)c4c3C2=O)NC(=O)/C(C)=C\C=C\[C@H](C)[C@H](O)[C@@H](C)[C@@H](O)[C@@H](C)[C@H](OC(C)=O)[C@@H]1C [RMP, Rifampicin] |  |  | MIC90 (M. bovis BCG): < 0.78 µM
6 | CCOC(=O)c1c(C)nc2cc(C)ccn12 [ethyl 2,7-dimethylimidazo[1,2-a]pyridine-3-carboxylate] |  | ~65 µM (≈ 14.2 µg/mL) | 
